Entries after “also recorded” stand apart in the source; their conditions may differ.
Assays:
RT2 cells = assay: MTS proliferation assay of malignant glioma cells; type: cell-based, rat; details: RT2, 6 days; S16 100 μM, S18 100 or 200 μM
Procedure: (§1) FIGS. 5A, 5B and 5C. MTS proliferation assay of in vitro brain tumor cells (malignant glioma) treated with structural analogues of ceramic. (•) control; (∘) S16, 100 μM; (▾) S18, 200 μM; (∇) S18, 100 μM. 5A: U87 cells (6 days); 5B: RT2 cells (6 days); 5C: T98 cells (5 days).
(§2) Murine neuroblastoma x rat glioma NG108-15 and murine neuroblastoma x rat dorsal root ganglion F-11 cells were kindly provided by Drs. Robert Ledeen (New Jersey School of Medicine, Newark, N.J.) and Glyn Dawson (University of Chicago, Chicago, Ill.), respectively. PC12 (rat adrenal pheochromocytoma, ATCC CRL 1721) cells were purchased from the American Type Culture Collection (Manassas, Va.). U87 and T98 human glioma cells were purchased from the American Type Culture Collection (Manassas, Va.). RT2 rat glioma cells were a gift.
(§3) CU87, T98 or RT2 malignant glioma cells (750/well) were plated onto 96-well plates and allowed to grow for 5-6 days in the presence of the ceramic analogues S16, S18 or B16, or control media. The CellTiter96® Aqueous One cell proliferation assay (Promega, Inc.) was used to quantify glioma cell proliferation. In this assay, the amount of formazan product (490 nm absorbance) made from the conversion of [3-(,5-dimethyl-2-yl)-5-(3-carboxymethoxyphenyl)-2-(4-sulfophenyl)-2H-tetrazolium, inner salt (MTS) by dehydrogenase enzymes of metabolically active cells is directly proportional to the number of living cells in culture.
(§4) The effect of the compounds S16, S18, and B16 on the ability of U87, RT2 and T98 glioma cells to proliferate in vitro was investigated as described in Methods and the results are presented in FIGS. 5A, 5B and 5C, respectively.

U87 cells = assay: MTS proliferation assay of malignant glioma cells; type: cell-based, human; details: U87, 6 days; S16 100 μM, S18 100 or 200 μM
Procedure: as §1, §2, §3, §4

T98 cells = assay: MTS proliferation assay of malignant glioma cells; type: cell-based, human; details: T98, 5 days; S16 100 μM, S18 100 or 200 μM
Procedure: as §1, §2, §3, §4

[1] = system: Neuroblastoma cells (NG108-15 or F-11); assay: Effect of alkyl chain length on apoptotic potential of N-acylated compounds; type: cell-based; details: 30% confluence, overnight, various concentrations
Procedure: (§5) Apoptosis was analyzed by DNA fragmentation, in situ terminal nucleotidyl transferase assay, and staining of condensed chromatin with Hoechst dye 33258 as described elsewhere (Ji et al., 1995; Bieberich et al., 1999) and as further outlined below. The degree of cell death was monitored by determination of the number of floating cells and cells stained with 0.4% trypan blue (Wang et al., 1999).
Neuroblastoma cells (NG108-15 or F-11) were grown to 30% confluence and incubated overnight with various concentrations of N-acyl compounds containing carbon chains with 8, 16 and 18 carbons, as well as C16 ethanolamine. The floating cells were harvested from the medium and the amount of cellular protein determined for calculation of dead cells. In addition, cell death was quantified by staining with trypan blue. The attached cells were stained with Hoechst dye 33258 for calculation of apoptotic cells with condensed chromatin. The number of apoptotic cells was determined by counting 100 stained cells in 20 different areas on tissue culture dishes from three independent experiments.
The effect of alkyl chain length on the apoptotic potential of S16 and two compounds differing only in the length of the alkyl chains, S8 (8 carbons)and S18 (18 carbons) was investigated as described in Methods. Also, the contribution of the second β-hydroxymethyl group of S16 was analyzed by comparison with the effect of C16 EA (C16 ethanolamine) on apoptosis. […] As such, the preferred length is 12-20 carbons.

NG108-15 cells [2] = assay: Dependence of S16 induced apoptosis on cell density; type: cell-based, murine neuroblastoma x rat glioma; details: 100 μM S16 overnight; cell density below 20% or above 50%
Procedure: as §5
Cells were grown to varying degrees of confluence (100%=1.0×10^5 cells/cm^2) and then incubated overnight with 100 μM S16. The floating cells were harvested from the medium and the amount of cellular protein determined for calculation of dead cells. In addition, cell death was quantified by staining with trypan blue. The attached cells were stained with Hoechst dye 33258 for calculation of apoptotic cells with condensed chromatin. The number of apoptotic cells was determined by counting 100 stained cells in 20 different areas on tissue culture dishes from three independent experiments.
(§6) The dependence of the rate of S16 induced apoptosis of NG108-15 cells on cell density was investigated as described in methods and the results are given in FIG. 3. […] This observation was confirmed by determination of cell density-dependent DNA fragmentation (laddering) upon incubation with S16. Cells were incubated with 100 μM S16 for 15 hours.

NG108-15 cells [3] = assay: Alteration of ceramic and sphingolipid levels (HPTLC) upon incubation with S16; type: cell-based, murine neuroblastoma x rat glioma
Excerpt: as §2
(§7) Lipids were prepared and analyzed by HPTLC as described previously (Freischutz et al., 1997).
(§8) NG108-15 or F-11 cells were incubated with 100 μM S16 overnight and endogenous ceramic analyzed by HPTLC of neutral lipids corresponding to 200 μg of cellular protein applied per lane. The HPTLC plate was developed in CHCl3/HOAc (9:1), v/v) and sphingolipids stained with cupric acetate/phosphoric acid reagent. Levels of ceramic, sphingomyelin, and neutral lipids were determined by densitometric analysis and comparison with various amounts of standard lipids. […] However, the concentration of ceramic in F-11 and NG108-15 cells at 20% confluence was elevated by about 50-80%.

F-11 cells [4] = assay: Cell density-dependent DNA fragmentation (laddering); type: cell-based, murine neuroblastoma x rat dorsal root ganglion; details: 100 μM S16, 15 hours; 30% confluent compared with 100% confluent cells
PC12 cells = assay: Dependence of apoptosis on cell differentiation (Hoechst dye 33258 staining); type: cell-based, rat; details: 24 hours; undifferentiated vs forskolin-differentiated PC12 cells
Excerpt: as §2, §5
The dependence of apoptosis upon differentiation of cells was analyzed by incubating undifferentiated PC12 cells and PC12 cells which had been induced to differentiate with S16 for 24 hours. Differentiation was induced by preincubation with 10 μM forskolin for 48 hrs. The extent of apoptosis was determined by staining with Hoechst dye 33258.
The apoptotic potential of S16 with respect to cell differentiation was investigated as described in Methods.

NG108-15 cells [5] = assay: Cell density-dependent DNA fragmentation (laddering); type: cell-based, murine neuroblastoma x rat glioma; details: 100 μM S16, 15 hours; 30% confluent compared with 100% confluent cells
Procedure: as §5, §6

[6] = system: NG108-15 or F-11 neuroblastoma tumors; assay: In vivo tumor model in athymic mice; parameters: species or system athymic NU/NU mice
Procedure: A total of 1×10^6 NG108-15 or F-11 cells in 200 μl of phosphate buffered saline (PBS) was subcutaneously injected into each side of athymic NU/NU mice (Harlan) for generation of an in vivo brain tumor model in mouse skin. The resulting tumors were treated either intraperitoneally or by direct intratumor injection of ceramic analogs. Tumor growth rates and treatment results were the same within experimental error regardless of whether NG108-15 or F-11 cells were used.
Tumor growth was monitored by caliper measurement. The tumor volume was calculated by the formula: tumor size [mm^3]=(tumor width [mm])^2×tumor length [mm].
(§9) The intraperitoneal administration of ceramic analogs started one day after grafting and was performed twice per day with 0.7 ml of 2 mM S16 or 4 mM S18 corresponding to 50-100 mg/kg per mouse. The compounds were predissolved in dimethylsulfoxide (DMSO) at a maximum concentration of 250 mM and then serially diluted to 2 mM S16 or 4 mM S18 in 20% bovine serum albumin (BSA), 500 μM sodium stearate, 0.9% sodium chloride.
The intratumoral administration of ceramic analogs was initiated when tumor size was 30-50 mm^3 and consisted of daily injections of a 10-fold concentrated analog solution prepared as described above for S16 or of 2 mM B16 in 0.9% sodium chloride. The final concentration was calculated to be 200 μM when applied in a volume of 10% of the tumor size. Tumor volume was measured and calculated as described above.
Athymic mice were grafted with neuroblastoma tumors by subcutaneous injection and treated by intraperitoneal or intratumoral injection of S16 as described in Methods. Control mice received no treatment, or treatment with C-16 EA. […] Furthermore, the first measurable tumors appeared 2 days later in mice treated with S16 than in control mice. […]
FIG. 9. […] The tumor volume was determined by caliper measurement and was about 4 ml for the mouse on the left side (untreated for 10 days) and 2 ml for the mouse on the right side (treated for 14 days).

[7] = General toxicity during in vivo treatment; details: up to a total of 200 mg/kg/day, treatment for 14 days
Procedure: as §9
Athymic mice were grafted with neuroblastoma tumors by subcutaneous injection and treated by intraperitoneal or intratumoral injection of S16 as described in Methods. Control mice received no treatment, or treatment with C-16 EA. […] Furthermore, the first measurable tumors appeared 2 days later in mice treated with S16 than in control mice.

F-11 cells [8] = assay: Alteration of ceramic and sphingolipid levels (HPTLC) upon incubation with S16; type: cell-based, murine neuroblastoma x rat dorsal root ganglion
Excerpt: as §2, §7, §8

[9] = 100 μM S16, 100% confluent cells
[10] = 100 μM S16 overnight, cells at 20% confluence

SMILES: CCCCCCCCCCCCCCCC(=O)N(CCO)CCO [B16, N,N-bis(2-hydroxyethyl) palmitamide]
- cellular proliferation (RT2 cells): marked decrease in cellular proliferation; also recorded: virtually eliminating the proliferation
- cellular proliferation (U87 cells): marked decrease in cellular proliferation; also recorded: virtually eliminating the proliferation
- cellular proliferation (T98 cells): marked decrease in cellular proliferation; also recorded: virtually eliminating the proliferation

SMILES: CCCCCCCCCCCCCCCC(=O)NCCO [C16 EA, N-palmitoyl ethanolamine, reference compound]
- apoptotic potential [1]: almost no apoptosis

SMILES: CCCCCCCCCCCCCCCC(=O)NC(CO)CO [S16, N-palmitoyl serinol]
- apoptotic potential [1]: optimal
- degree of apoptosis (NG108-15 cells [2]): markedly decreased
- alteration of endogenous ceramic (NG108-15 cells [3]; [9]): no significant alteration
- alteration of the glycosphingolipid composition (NG108-15 cells [3]; 100 μM S16 overnight): no detectable alteration
- alteration of the level of sphingomyelin (NG108-15 cells [3]; 100 μM S16 overnight): no detectable alteration
- concentration of ceramic elevated (NG108-15 cells [3]; [10]): 50-80%
- cellular proliferation (RT2 cells): marked decrease in cellular proliferation
- cellular proliferation (U87 cells): marked decrease in cellular proliferation
- cellular proliferation (T98 cells): marked decrease in cellular proliferation
- laddering of 200-base pair fragments (F-11 cells [4]): increased markedly
- apoptosis (staining with Hoechst dye) (PC12 cells): only undifferentiated cells showed the typical staining
- laddering of 200-base pair fragments (NG108-15 cells [5]): increased markedly
- final size of the tumors relative to untreated or C16-EA treated mice ([6]; intraperitoneal or intratumoral injection): 30-35%
- delay of appearance of first measurable tumors versus control mice ([6]; mice treated with S16): 2 days
- effects of general toxicity [7]: No effects of general toxicity were observable
- alteration of endogenous ceramic (F-11 cells [8]; [9]): no significant alteration
- alteration of the glycosphingolipid composition (F-11 cells [8]; 100 μM S16 overnight): no detectable alteration
- alteration of the level of sphingomyelin (F-11 cells [8]; 100 μM S16 overnight): no detectable alteration
- concentration of ceramic elevated (F-11 cells [8]; [10]): 50-80%

SMILES: CCCCCCCC/C=C\CCCCCCCC(=O)NC(CO)CO [S18, N-oleoyl serinol]
- apoptotic potential [1]: optimal
- cellular proliferation (RT2 cells): marked decrease in cellular proliferation; also recorded: virtually eliminating the proliferation
- cellular proliferation (U87 cells): marked decrease in cellular proliferation; also recorded: virtually eliminating the proliferation
- cellular proliferation (T98 cells): marked decrease in cellular proliferation; also recorded: virtually eliminating the proliferation
- tumor volume (caliper measurement) ([6]; F-11 grafts, intra-peritoneal 0.7 ml of 4 mM twice a day for 14 days, untreated mouse about 4 ml at 10 days): ~2 mL
